# Columns and labels:
# [1] = tested on: MRC-5 normal human lung fibroblasts; assay: MTT cell viability assay, normal lung fibroblasts; format: cell-based; settings: MRC5, MRC-5, 72 h
# Method: (§1) Human cell lines were obtained from the American Type Culture Collection (ATCC, Manassas, VA, USA). Normal lung MRC-5 fibroblasts (ATCC® CCL-171™), SK-MES-1 lung cancer cells (ATCC® HTB-58™), and J82 bladder carcinoma cells (ATCC® HTB-1™) were grown as monolayers in Eagle’s minimum essential medium (MEM) with Earle’s salts, 2 mM L-glutamine, and 1.5 g/L sodium bicarbonate. Gastric epithelial AGS cells (ATCC® CRL-1739™) were grown as monolayers in Ham’s F-12 medium containing 1 mM L-glutamine and 1.5 g/L sodium bicarbonate. Promyelocytic leukemia HL-60 (ATCC® CCL-240™), colorectal adenocarcinoma HCT-15 (ATCC® CCL-225™), metastatic colorectal COLO205 (ATCC® CCL-222™), and breast cancer AU565 (ATCC® CRL-2351™, ER^−-HER2/neu^+) cells were grown in suspension in an RPMI-1640 medium containing 1 mM sodium pyruvate and 2.0 g/L sodium bicarbonate. Human breast cancer MCF-7 (ATCC® HTB-22™, ER^+-HER2/neu^−) and MDA-MB-231 (ATCC® HTB-26™, ER^−-HER2/neu^−) cells were grown as monolayers in DMEM medium. All media were supplemented with 10% heat-inactivated fetal bovine serum (HI-FBS), 100 IU/mL penicillin G, and 100 µg/mL streptomycin. Cells were maintained at 37 °C in a humidified incubator with 5% CO2.
# (§2) MRC-5, SK-MES-1, J82, and AGS cells were seeded at a density of 5 × 10^4 cells/mL in 96-well plates. COLO205, HCT-15, MCF-7, MDA-MB-231, and AU565 cells were seeded at 1 × 10^5 cells/mL, while HL-60 cells were plated at 3 × 10^5 cells/mL. A volume of 100 µL of the cell suspension was added to each well. After 24 h, the compounds were added in increasing concentrations (ranging from 0 to 100 µM), and cells were incubated for 24, 48, or 72 h. The compounds were dissolved in DMSO and diluted in complete medium to a final concentration of 0.5% DMSO. Cells treated with 0.5% DMSO in complete medium were used as viability controls (100%). Etoposide (98% purity, Sigma-Aldrich, St. Louis, MO, USA) was used as the reference compound. Each concentration was tested in quadruplicate, and each experiment was performed twice using independent cell preparations. At the end of the incubation period, cell viability was determined using the MTT reduction assay. The results were transformed into percentages relative to controls, and IC50 values were obtained graphically from the dose–response curves. Results are presented as IC50 values ± standard deviation (SD).
# AGS cells = assay: MTT cell viability assay, gastric adenocarcinoma; format: cell-based; settings: Homo sapiens, 72 h
# Method: as §1, §2
# SK-MES-1 cells = assay: MTT cell viability assay, lung cancer; format: cell-based; settings: Homo sapiens, SK-MES-1, 72 h
# Method: as §1, §2
# J82 cells = assay: MTT cell viability assay, bladder carcinoma; format: cell-based; settings: Homo sapiens, J82, 72 h
# Method: as §1, §2
# HL-60 cells = assay: MTT cell viability assay, leukemia; format: cell-based; settings: Homo sapiens, HL-60, 72 h
# Method: as §1, §2
# COLO205 cells [2] = assay: MTT cell viability assay, metastatic colorectal cancer; format: cell-based, human; settings: for IC50: Homo sapiens, COLO 205
# Method: as §1, §2
# MCF-7 cells [3] = assay: MTT cell viability assay, mammary carcinoma; format: cell-based; settings: Homo sapiens, MCF7
# Method: as §1, §2
# MDA-MB-231 cells = assay: MTT cell viability assay, mammary carcinoma; format: cell-based; settings: Homo sapiens
# Method: as §1, §2
# AU565 cells [4] = assay: MTT cell viability assay, mammary carcinoma; format: cell-based, human; settings: for IC50: Homo sapiens
# Method: as §1, §2
# AU565 cells [5] = assay: Oxygen consumption assay (Clark-type electrode); format: cell-based, human; settings: AU565, 10 and 20 µM
# Method: (§3) Oxygen consumption of the tumor cells was measured polarographically using a Clark-type electrode (Yellow Springs Instruments, Dayton, OH, USA) placed horizontally in a cell of 0.6 mL volume at 25 °C, coupled to a YSI monitor (model 53). The electrode signal was recorded in a computer connected to a DI-148U module with a USB interface. Data were acquired using the Windaq Acquisition Waveform Recorder software v3.36 (DataQ Instruments, Akron, OH, USA). The test medium used contained 150 mM NaCl, 5 mM KCl, and 1 mM Tris-HCl, and pH 7.4. 5 mM glutamine was added with the cells and test compounds. Oxygen consumption was recorded when the cell aliquots (6 × 10^6 cells) were added. Oligomycin (1.5 μg/mL) was added as an inhibitor of the Fo subunit of ATP synthase prior to the incorporation of the compounds under study. FCCP (carbonyl cyanide-p-trifluoromethoxyphenylhydrazone, 50 nM) was used prior to the addition of test compounds as an internal control to calibrate the electrode system and confirm the maximum uncoupling capacity of the cells.
# MCF-7 cells [6] = assay: Oxygen consumption assay (Clark-type electrode); format: cell-based, human; settings: for oxygen consumption rate: after oligomycin
# Method: as §3
# COLO205 cells [7] = assay: LDH release assay; format: cell-based, human; settings: COLO205, 0.5–5 μM, 24 h
# Method: (§4) COLO205 and HCT-15 cells were cultured at 2 × 10^4 cells/well in 96-well plates and incubated for 24 h. Afterwards, BA-C4-TPP^+Br^− was added in increasing concentrations (0.5, 1, 2.5, and 5 µM) for 24 h. Finally, the supernatant of each well was transferred to a new plate (10 µL/well), and the LDH reaction mix was added (100 µL/well). The plate was incubated for 20 min at room temperature, and the absorbance of each well was measured using a Varioskan® Flash plate reader (Thermo Scientific, Waltham, MA, USA) at 450 nm. All values are expressed as a percentage of LDH activity relative to cells incubated with Cell Lysis solution (provided in the kit) for 24 h.
# HCT-15 cells = assay: LDH release assay; format: cell-based, human
# Method: as §4
# human cancer cell lines = assay: MTT cell viability, summary over the human cancer cell lines; format: cell-based; settings: summary statement
# Method: as §1, §2
structure (smiles),measurement,setting,value
"C=C(C)[C@@H]1CC[C@]2(C(=O)OCCCC[P+](c3ccccc3)(c3ccccc3)c3ccccc3)CC[C@]3(C)[C@H](CC[C@@H]4[C@@]5(C)CC[C@H](O)C(C)(C)[C@@H]5CC[C@]43C)[C@@H]12 [BA-C4-TPP^+Br^−, 4-Triphenylphosphoniobutyl 3β-hydroxylup-20(29)-en-28-oate bromide]",IC50,[1],0.21 ± 0.01 µM
same,IC50,AGS cells,0.35 ± 0.02 µM
same,IC50,SK-MES-1 cells,0.32 ± 0.08 µM
same,IC50,J82 cells,0.84 ± 0.02 µM
same,IC50,HL-60 cells,0.22 ± 0.04 µM
same,increase in potency compared to non-modified BA scaffold,COLO205 cells [2]; COLO205 cells at 72 h,~264 fold
same,IC50,"COLO205 cells [2]; COLO205, 24 h",0.88 ± 0.22 µM
same,IC50,"COLO205 cells [2]; COLO205, 48 h",0.45 ± 0.09 µM
same,IC50,"COLO205 cells [2]; COLO205, 72 h",0.13 ± 0.01 µM
same,IC50,"MCF-7 cells [3]; MCF-7, 24 h",3.88 ± 0.45 µM
same,IC50,"MCF-7 cells [3]; MCF-7, 48 h",0.95 ± 0.34 µM
same,IC50,"MDA-MB-231 cells; MDA-MB-231, 24 h",1.7 ± 0.44 µM
same,IC50,"MDA-MB-231 cells; MDA-MB-231, 48 h",1.01 ± 0.09 µM
same,increase in potency compared to non-modified BA scaffold,AU565 cells [4]; AU565 cells at 48 h,~15 fold
same,IC50,"AU565 cells [4]; AU565, 24 h",1.66 ± 0.12 µM
same,IC50,"AU565 cells [4]; AU565, 48 h",0.6 ± 0.05 µM
same,mitochondrial uncoupling effect,AU565 cells [5],the strongest uncoupler in AU565 cells
same,oxygen consumption rate,"MCF-7 cells [6]; MCF-7, 10 µM compound",12.57 nmol O2 min^−1
same,oxygen consumption rate,"MCF-7 cells [6]; MCF-7, 20 µM compound",21.66 nmol O2 min^−1
same,mitochondrial uncoupling effect,"MCF-7 cells [6]; MCF-7, 10 and 20 µM",concentration-dependent
same,LDH release,COLO205 cells [7],no significant LDH release
same,LDH release,"HCT-15 cells; HCT-15, 2.5 μM, 24 h, relative to Cell Lysis solution",18%
same,LDH release relative to control (DMSO),"HCT-15 cells; HCT-15, 24 h",double the control (DMSO) value
same,IC50,"human cancer cell lines; Homo sapiens, 48 and 72 h of treatment",< 1 µM
same,increase in potency,"human cancer cell lines; nine human cancer cell lines, relative to BA",over 100 fold

# Reference: PMC12292992, “Betulinic Acid ω-Triphenylphosphonium Alkyl Esters: Antiproliferative Activities and In Silico Pharmacokinetic Profiles” (Biomedicines, 2025)
